Source: article PMC7529893, “Structural basis for substrate recognition and chemical inhibition of oncogenic MAGE ubiquitin ligases” (Nature Communications, 2020)

Target: T1, MAGE-A11:PCF11 interaction (GST-MAGE-A11 and FAM-PCF11_4) (Homo sapiens, UniProt P43364)
T1 construct: GST-MAGE-A11 MHD (human MAGE-A11 MHD amino acid 218-429); made in house; host or cells: E. coli BL21(DE3)
T1 sequence (P43364 218-429): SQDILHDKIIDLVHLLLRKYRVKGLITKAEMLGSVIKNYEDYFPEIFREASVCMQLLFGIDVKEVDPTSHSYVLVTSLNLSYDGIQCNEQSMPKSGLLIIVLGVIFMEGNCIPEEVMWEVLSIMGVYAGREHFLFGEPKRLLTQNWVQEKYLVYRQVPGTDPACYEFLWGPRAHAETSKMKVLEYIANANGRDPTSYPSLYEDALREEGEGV
Test: TR-FRET primary / single point screen at 15 µM
Assay type: binding
How it was run: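 Single-point screen at 15 µM final compound in 50 mM Tris pH 7.5, 20 mM MgCl2, 0.1 mg/ml BSA, 1 mM DTT, with 200 nM FAM-PCF11_4, 5 nM Tb-anti-GST and 5 nM GST-MAGE-A11. After 90 min at room temperature, the 520/490 nm TR-FRET ratio (340 nm excitation) gave %Inhibition against no-MAGE-A11 and DMSO controls.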

[1] = single point TR-FRET screening of 797 quinoline compounds against MAGE-A11:PCF11
[2] = single point TR-FRET screening of quinoline compounds against MAGE-A11:PCF11, 15 µM

Row | Compound | percent inhibition (TR-FRET) [1] | percent inhibition (TR-FRET) [2]
1 | O=S(=O)(c1ccccc1)c1cnc2ccc(Cl)cc2c1N1CCN(c2ccccc2)CC1 [SJ000083977] | -15.701 | –
2 | COc1ccc2nc3cc(Cl)ccc3c(NCCCNCCCSC)c2c1 [SJ000523025] | -336.863 | –
3 | CCCNCCCNc1c2ccc(Cl)cc2nc2ccc(OC)cc12 [SJ000361096] | -498.476 | –
4 | Cc1ccc(S(=O)(=O)N2CCN(c3ccnc4cc(Cl)ccc34)CC2)cc1 [SJ000192519] | -38.6966 | –
5 | COc1ccc2nc3cc(Cl)ccc3c(NCCCNCc3cc(Br)cs3)c2c1 [SJ000520996] | -287.642 | –
6 | Cc1c(CNCCCNc2ccnc3cc(Cl)ccc23)c(=O)n(-c2ccccc2)n1C [SJ000523058] | – | 5.584
7 | CCCN(CCCNc1c2ccc(Cl)cc2nc2ccc(OC)cc12)Cc1cc2ccccc2s1 [SJ000522962] | – | -21.5824
8 | CCc1ccc(S(=O)(=O)c2cnc3ccccc3c2N2CCN(c3ccccc3OC)CC2)cc1 [SJ000117069] | -47.4423 | –
9 | CC(C)Cc1ccc2c(NCCCNCc3ccco3)ccnc2c1 [SJ000311258] | – | 8.8745
10 | FC(F)(F)c1ccc(-c2ccc3c(NCCCNCc4ccco4)ccnc3c2)cc1 [SJ000311278] | – | 56.2051
11 | CCCN(CCCNc1c2ccc(Cl)cc2nc2ccc(OC)cc12)Cc1cc(F)cc(F)c1O [SJ000522982] | – | 2.045
12 | CCCN(CCCNc1c2ccc(Cl)cc2nc2ccc(OC)cc12)Cc1ccc(Cl)c(C(F)(F)F)c1 [SJ000522974] | – | 16.3588
13 | FC(F)(F)Oc1cccc(CN(CCCNc2ccnc3cc(Cl)ccc23)Cc2ccccc2)c1 [SJ000520464] | – | 27.7788
14 | CN(C)CC(=O)Nc1c2c(nc3ccccc13)N(C)CC2 [SJ000332030] | 17.0397 | –
15 | Cc1ccc2ncc(S(=O)(=O)c3ccccc3)c(N3CCN(Cc4ccccc4)CC3)c2c1 [SJ000247256] | 2.673 | –
16 | CCC(C)CNCCCNc1c2ccc(Cl)cc2nc2ccc(OC)cc12 (centres unmarked) [SJ000361093] | -451.494 | –
17 | CCOC(=O)c1cnc2ccc(OCC)cc2c1NCCCN1CCOCC1 [SJ000279525] | – | 5.532
18 | CCN1CCN(c2c(S(=O)(=O)c3ccc(Cl)cc3)cnc3ccc(C)cc23)CC1 [SJ000083967] | -3.0982 | –
19 | FC(F)(F)Oc1ccccc1CN(CCCNc1ccnc2cc(Cl)ccc12)Cc1ccccc1 [SJ000357599] | – | 19.7634
20 | CCCN(CCCNc1c2ccc(Cl)cc2nc2ccc(OC)cc12)Cc1ccccc1C(=O)O [SJ000520951] | -258.592 | –
21 | Cc1cc(NC(=O)CN[C@H]2CCN(Cc3ccccc3)C2)c2ccccc2n1 [SJ000832405] | 4.364 | –
22 | Cc1ccc(S(=O)(=O)c2cnc3ccccc3c2N2CCN(c3ccc(C)cc3C)CC2)cc1 [SJ000117080] | 3.172 | –
23 | CCCN(CCCNc1c2ccc(Cl)cc2nc2ccc(OC)cc12)Cc1ccc(C(=O)OC)cc1 [SJ000523018] | -118.624 | –
24 | CCCN(CCCNc1c2ccc(Cl)cc2nc2ccc(OC)cc12)Cc1c(F)cccc1C(F)(F)F [SJ000522968] | – | 23.0877
25 | CCOc1ccc2ncc(S(=O)(=O)c3ccccc3)c(N3CCN(c4ccccc4)CC3)c2c1 [SJ000083975] | -12.0602 | –
26 | C=CCOCC(O)CN1CCN(c2cc(C(F)(F)F)nc3ccccc23)CC1 (centres unmarked) [SJ000228017] | -2.128 | –

Now from value to molecule:

Row | percent inhibition (TR-FRET) [1] | percent inhibition (TR-FRET) [2] | Compound
27 | 5.888 | – | Cn1ccnc1CN(CCCCNc1ccnc2cc(Cl)ccc12)Cc1ccccc1 [SJ000520435]
28 | – | 25.8235 | CCCN(CCCNc1ccnc2cc(C(F)(F)F)ccc12)CCOCc1ccccc1 [SJ000521011]
29 | – | 16.1561 | CCCN(CCCNc1ccnc2cc(C(F)(F)F)ccc12)Cc1c[nH]c2ccccc12 [SJ000520468]
30 | – | 6.349 | Clc1ccc2c(NCCCNCc3ccco3)ccnc2c1 [SJ000000502]
31 | -160.284 | – | CCCN(CCCNc1c2ccc(Cl)cc2nc2ccc(OC)cc12)CC(CC)CC [SJ000520939]
32 | 25.0481 | – | Clc1ccc2c(NCCCCN(Cc3ccccc3)Cc3cccs3)ccnc2c1 [SJ000312686]
33 | – | 11.4651 | Clc1ccc2c(NCCCNCC3CC3)ccnc2c1 [SJ000361101]
34 | – | 11.9552 | CCCN(CCCNc1ccnc2cc(C(F)(F)F)ccc12)Cc1cc(OC)ccc1F [SJ000520480]
35 | 19.4021 | – | COc1ccccc1CN(CCCCNc1ccnc2cc(Cl)ccc12)Cc1ccccc1 [SJ000522726]
36 | – | 15.9573 | CCCN(CCCNc1ccnc2cc(Cl)ccc12)Cc1cc(F)cc(F)c1O [SJ000357597]
37 | – | 19.1371 | CCCN(CCCNc1ccnc2cc(Cl)ccc12)Cc1ccccc1 [SJ000357431]
38 | – | 19.5346 | CCCN(CCCNc1ccnc2cc(C(F)(F)F)ccc12)Cc1cccs1 [SJ000361253]
39 | 24.3707 | – | O=[N+]([O-])c1cccc(CN(CCCCNc2ccnc3cc(Cl)ccc23)Cc2ccccc2)c1 [SJ000361201]
40 | – | 5.934 | CCCN(CCCNc1ccnc2cc(C(F)(F)F)ccc12)Cc1ccccc1OC(F)(F)F [SJ000520470]
41 | – | 9.134 | CCCN(CCCNc1ccnc2cc(Cl)ccc12)Cc1ccc([N+](=O)[O-])s1 [SJ000522750]
42 | – | 26.4363 | CCCN(CCCNc1ccnc2cc(C(F)(F)F)ccc12)Cc1ccc(F)cc1 [SJ000523070]
43 | – | 12.0952 | CCCN(CCCNc1ccnc2cc(Cl)ccc12)Cc1ccc(Cl)cc1Cl [SJ000523043]
44 | – | 32.6098 | CCCN(CCCNc1ccnc2cc(C(F)(F)F)ccc12)Cc1ccccc1OC [SJ000523072]
45 | – | 21.738 | CCCN(CCCNc1ccnc2cc(C(F)(F)F)ccc12)Cc1cc(C)ccc1C [SJ000523082]
46 | 14.9636 | – | Clc1ccc2c(NCCCCN(Cc3ccccc3)Cc3ccc(Br)o3)ccnc2c1 [SJ000312684]
47 | 42.3236 | – | Cc1ccc(F)cc1CN(CCCCNc1ccnc2cc(Cl)ccc12)Cc1ccccc1 [SJ000520449]
48 | – | 12.7774 | CCCCN(CCC)CCCNc1ccnc2cc(Cl)ccc12 [SJ000357571]
49 | – | -9.05 | COc1cccc(CN(CCCNc2ccnc3cc(Cl)ccc23)Cc2ccccc2)c1 [SJ000361188]
50 | – | -35.9356 | CCCN(CCCNc1c2ccc(Cl)cc2nc2ccc(OC)cc12)CC1CCOC1 (centres unmarked) [SJ000575149]
51 | – | 0.7867 | CCCN(CCCNc1c2ccc(Cl)cc2nc2ccc(OC)cc12)CCCSC [SJ000522730]
52 | – | 22.7145 | CCCN(CCCNc1ccnc2cc(Cl)ccc12)Cc1cccn1C [SJ000523014]
53 | 6.683 | – | COc1ccc(CN(CCCCNc2ccnc3cc(Cl)ccc23)Cc2ccccc2)cc1 [SJ000522724]
54 | -146.21 | – | CCCN(CCCNc1c2ccc(Cl)cc2nc2ccc(OC)cc12)Cc1ccccn1 [SJ000520919]
55 | 2.013 | – | Cc1ccc(CN(CCCCNc2ccnc3cc(Cl)ccc23)Cc2ccccc2)o1 [SJ000312682]
56 | 21.522 | – | CN(C)c1ccc(CN(CCCCNc2ccnc3cc(Cl)ccc23)Cc2ccccc2)cc1 [SJ000522727]
